Experiments:
[1] = tested on: anti-apoptotic Bcl2 protein in SW-620 cells; test: Western blot analysis of Bcl2; type: cell-based, human; details: SW-620, 5 μM and 10 μM, 24 h
From the text: To further examine the possible mechanism of apoptosis, the effect of compounds 5a and 5d on certain apoptosis-related proteins was studied. Bcl2 protein as a critical component of the mitochondrial apoptotic pathway is reported to be overexpressed in numerous tumours causing survival of cancer cell[62]. In addition, it was reported that caspase activation during apoptosis leads to proteolytic cleavage of several cellular substrates participating in DNA reparation including [poly (ADP-ribose) polymerase][63]. Therefore, the impact of compounds 5a and 5d on the anti-apoptotic protein Bcl2 and the level of cleaved PARP was examined (Figure 7). […]
2.5. Western Blot Analysis
All cells were seeded in a 100 mm dish (1 × 10^6 cells per dish) in 5% CO2 at 37 °C in the appropriate culture medium. The cells with around 50% confluency were treated with compounds for 24h. At the experiment day, cells were washed with 1x PBS, harvested and lysed in RIPA lysis buffer, combined with protease inhibitors, (Sigma-Aldrich, St. Louis, MO, USA) as described previously (39)). The total protein concentration was evaluated by the colorimetric Bradford protein assay (BIO-RAD inc, CA, USA) at 595 nm absorbance. Lysates were loaded in […]
equal concentration and separated by sodium dodecyl sulfate-polyacrylamide gel electrophoresis (SDS-PAGE) and then transferred to a nitrocellulose membrane by semi-dry. […]

[2] = tested on: human skin fibroblast (HFF-1) normal cells; test: MTT cell viability assay on normal cells; type: cell-based; details: HFF-1, incubation for 24 h
Experimental: Furthermore, selective cytotoxicity of compounds 5a and 5d was studied on human skin fibroblast (HFF-1) normal cells. […]
each well, and plates were incubated for 10 minutes at room temperature. After staining, unbound dye was removed by washing five times with 1 % acetic acid and the plates were air dried. Bound stain was subsequently solubilized with 10 mM trizma base, and the absorbance was read on an automated plate reader at a wavelength of 515 nm. For suspension cells, the methodology was the same except that the assay was terminated by fixing settled cells at the bottom of the wells by gently adding 50 μL of 80 % TCA (final concentration, 16 % TCA).
Using the seven absorbance measurements [time zero, (Tz), control growth, (C), and test growth in the presence of drug at the five concentration levels (Ti)], the percentage growth was calculated at each of the drug concentrations levels. Percentage growth inhibition was calculated […]
Three dose response parameters were calculated for each experimental agent. […] The drug concentration resulting in total growth inhibition (TGI) was calculated from Ti = Tz. […]
The cytotoxicity effect of compounds on the colorectal cancer cell lines, SW620 and HT29 in addition to the normal human fibroblasts was measured by MTT (3-(4, 5-dimethylthiazol-2-yl)-2,5-diphenyltetrazolium bromide) (Sigma-Aldrich, St. Louis, MO, USA) as previously described. […]

| SMILES | Bcl2 protein expression (Western blot, in words) [1] | effect on fibroblast normal cell viability [2] |
| --- | --- | --- |
| Cc1c(C(=O)N/N=C2\C(=O)Nc3ccccc32)oc2ccccc12 [Compound 5a] | dose dependent inhibition | little effect |
| COc1ccc2c(c1)/C(=N/NC(=O)c1oc3ccccc3c1C)C(=O)N2 [Compound 5d] | significant inhibition | little effect |

Source: article PMC8245078, “Development of novel benzofuran-isatin conjugates as potential antiproliferative agents with apoptosis inducing mechanism in Colon cancer” (Journal of Enzyme Inhibition and Medicinal Chemistry, 2021)
